Reference: ChEMBL document CHEMBL5375992, “Design and Development of IKZF2 and CK1α Dual Degraders” (J Med Chem, 2023)
Values after ≈ are worked out from the molar mass of the structure shown. Active and inactive are the calls of the source. No cut-off for these calls is given here.

Legend:
OCI-Ly3 [1] = assay: Upregulation of Bax transcript level in human OCILY3 cells at 1 uM incubated for 24 hrs by RT-qPCR analysis; type: functional, cell-based
OCI-Ly3 [2] = assay: Upregulation of MDM2 protein expression in human OCILY3 cells at […] incubated for 24 hrs by Western blot analysis; type: functional, cell-based
[3] = molecular target: Cereblon/Ikaros (Homo sapiens) (UniProt Q96SW2+Q13422); assay: Protac activity at CRBN/IKZF1 (unknown origin) transfected in HEK293T cells at 100 nM incubated for 24 hrs by flow cytometry analysis relative to control; type: cell-based
[4] = molecular target: T1, Protein cereblon/Zinc finger protein Helios (Homo sapiens) (UniProt Q96SW2+Q9UKS7); assay: Protac activity at CRBN/IKZF2 (unknown origin) transfected in HEK293T cells at 100 nM incubated for 24 hrs by flow cytometry analysis relative to control; type: cell-based
T1 sequence (Q96SW2 whole entry, looked up): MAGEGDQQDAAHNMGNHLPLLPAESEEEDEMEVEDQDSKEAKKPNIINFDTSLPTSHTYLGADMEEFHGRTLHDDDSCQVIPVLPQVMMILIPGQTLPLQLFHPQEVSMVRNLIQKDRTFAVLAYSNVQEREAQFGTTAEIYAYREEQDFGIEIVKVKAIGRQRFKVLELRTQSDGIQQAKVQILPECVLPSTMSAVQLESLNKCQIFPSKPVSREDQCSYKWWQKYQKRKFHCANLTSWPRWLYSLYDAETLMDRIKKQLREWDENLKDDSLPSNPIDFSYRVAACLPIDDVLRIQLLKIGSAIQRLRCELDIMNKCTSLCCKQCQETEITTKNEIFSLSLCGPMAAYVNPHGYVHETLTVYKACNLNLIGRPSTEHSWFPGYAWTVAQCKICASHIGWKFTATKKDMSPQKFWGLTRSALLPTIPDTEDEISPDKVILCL
T1 sequence (Q9UKS7 whole entry, looked up): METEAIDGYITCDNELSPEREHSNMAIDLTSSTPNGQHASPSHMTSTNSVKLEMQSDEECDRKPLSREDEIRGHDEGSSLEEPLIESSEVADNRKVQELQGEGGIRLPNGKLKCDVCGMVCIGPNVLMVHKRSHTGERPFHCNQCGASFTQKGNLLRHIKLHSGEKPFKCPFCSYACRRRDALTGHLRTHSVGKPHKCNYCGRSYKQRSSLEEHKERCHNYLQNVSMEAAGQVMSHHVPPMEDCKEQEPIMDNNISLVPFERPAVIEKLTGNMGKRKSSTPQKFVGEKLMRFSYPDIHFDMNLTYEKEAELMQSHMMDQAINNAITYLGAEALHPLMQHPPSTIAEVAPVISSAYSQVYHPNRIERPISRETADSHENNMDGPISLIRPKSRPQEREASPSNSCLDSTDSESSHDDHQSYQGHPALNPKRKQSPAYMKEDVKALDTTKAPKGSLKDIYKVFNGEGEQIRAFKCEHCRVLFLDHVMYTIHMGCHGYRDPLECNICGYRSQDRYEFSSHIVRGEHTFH

[5] = molecular target: T2, Cereblon/Casein kinase I alpha (Homo sapiens) (UniProt P48729+Q96SW2); assay: Protac activity at CRBN/CK1alpha (unknown origin) transfected in HEK293T cells at 100 nM incubated for 24 hrs by flow cytometry analysis relative to control; type: cell-based
T2 sequence (P48729 2-337 limits assumed): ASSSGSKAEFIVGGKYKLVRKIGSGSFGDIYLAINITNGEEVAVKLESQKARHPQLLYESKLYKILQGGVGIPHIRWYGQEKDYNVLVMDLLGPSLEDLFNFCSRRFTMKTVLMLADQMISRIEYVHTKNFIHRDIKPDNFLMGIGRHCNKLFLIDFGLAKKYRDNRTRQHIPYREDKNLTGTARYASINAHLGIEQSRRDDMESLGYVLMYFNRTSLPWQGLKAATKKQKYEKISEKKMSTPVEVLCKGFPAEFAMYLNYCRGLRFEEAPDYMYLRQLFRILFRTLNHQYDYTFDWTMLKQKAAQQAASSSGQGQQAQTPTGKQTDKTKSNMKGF
T2 sequence (Q96SW2 whole entry partner): as the sequence (Q96SW2 whole entry, looked up) above

[6] = molecular target: T3, Protein cereblon/Eukaryotic peptide chain release factor GTP-binding subunit ERF3A (Homo sapiens) (UniProt Q96SW2+P15170); assay: Protac activity at CRBN/GSPT1 (unknown origin) transfected in HEK293T cells at 100 nM incubated for 24 hrs by flow cytometry analysis relative to control; type: cell-based
T3 sequence (P15170 whole entry, looked up): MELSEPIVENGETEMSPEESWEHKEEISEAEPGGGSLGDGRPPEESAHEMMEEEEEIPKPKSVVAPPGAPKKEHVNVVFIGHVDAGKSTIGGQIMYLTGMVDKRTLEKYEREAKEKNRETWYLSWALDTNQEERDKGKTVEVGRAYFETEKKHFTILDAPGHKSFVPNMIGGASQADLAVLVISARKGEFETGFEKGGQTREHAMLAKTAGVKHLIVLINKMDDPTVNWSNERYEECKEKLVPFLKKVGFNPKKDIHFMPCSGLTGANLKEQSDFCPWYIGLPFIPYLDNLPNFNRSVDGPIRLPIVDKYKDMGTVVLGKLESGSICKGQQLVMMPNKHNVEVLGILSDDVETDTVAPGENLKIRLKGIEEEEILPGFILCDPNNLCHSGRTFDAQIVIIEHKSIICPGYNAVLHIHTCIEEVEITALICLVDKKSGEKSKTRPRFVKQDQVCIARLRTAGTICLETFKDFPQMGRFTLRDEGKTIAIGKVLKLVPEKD
T3 sequence (Q96SW2 whole entry, looked up): as the sequence (Q96SW2 whole entry, looked up) above

[7] = Solubility of compound in DMSO; type: physicochemical; conditions: DMSO; read-out: solubility
[8] = molecular target: T2, Cereblon/Casein kinase I alpha (Homo sapiens); assay: Protac activity at CRBN/CK1alpha in human MOLM-13 cells at 50 nM incubated for 2 hrs by proteomic analysis; type: cell-based
A2780 [9] = assay: Cytotoxicity against human A2780 cells incubated for 5 days by MTT assay; type: functional, cell-based; conditions: A2780, 120 h
OCI-Ly3 [10] = assay: Cytotoxicity against human OCILY3 cells incubated for 5 days by MTT assay; type: functional, cell-based; conditions: OCI-Ly3, 120 h
[11] = molecular target: T2, Cereblon/Casein kinase I alpha (Homo sapiens); assay: Protac activity at CRBN/CK1alpha in human A2780 cells assessed as relative ratio at 1 nM incubated for 24 hrs by Western blotting analysis relative to DMSO; type: cell-based
[12] = molecular target: T2, Cereblon/Casein kinase I alpha (Homo sapiens); assay: Protac activity at CRBN/CK1alpha in human A2780 cells assessed as relative ratio at 10 nM incubated for 24 hrs by Western blotting analysis relative to DMSO; type: cell-based
[13] = molecular target: T2, Cereblon/Casein kinase I alpha (Homo sapiens); assay: Protac activity at CRBN/CK1alpha in human A2780 cells assessed as relative ratio at 100 nM incubated for 24 hrs by Western blotting analysis relative to DMSO; type: cell-based
[14] = molecular target: T2, Cereblon/Casein kinase I alpha (Homo sapiens); assay: Protac activity at CRBN/CK1alpha in human A2780 cells assessed as relative ratio at 1 uM incubated for 24 hrs by Western blotting analysis relative to DMSO; type: cell-based
[15] = molecular target: T2, Cereblon/Casein kinase I alpha (Homo sapiens); assay: Protac activity at CRBN/CK1alpha in human A2780 cells assessed as relative ratio at 10 uM incubated for 24 hrs by Western blotting analysis relative to DMSO; type: cell-based
[16] = molecular target: T3, Protein cereblon/Eukaryotic peptide chain release factor GTP-binding subunit ERF3A (Homo sapiens); assay: Protac activity at CRBN/GSPT1 in human A2780 cells assessed as relative ratio at 1 nM incubated for 24 hrs by Western blotting analysis relative to DMSO; type: cell-based
[17] = molecular target: T3, Protein cereblon/Eukaryotic peptide chain release factor GTP-binding subunit ERF3A (Homo sapiens); assay: Protac activity at CRBN/GSPT1 in human A2780 cells assessed as relative ratio at 10 nM incubated for 24 hrs by Western blotting analysis relative to DMSO; type: cell-based
[18] = molecular target: T3, Protein cereblon/Eukaryotic peptide chain release factor GTP-binding subunit ERF3A (Homo sapiens); assay: Protac activity at CRBN/GSPT1 in human A2780 cells assessed as relative ratio at 100 nM incubated for 24 hrs by Western blotting analysis relative to DMSO; type: cell-based
[19] = molecular target: T3, Protein cereblon/Eukaryotic peptide chain release factor GTP-binding subunit ERF3A (Homo sapiens); assay: Protac activity at CRBN/GSPT1 in human A2780 cells assessed as relative ratio at 1 uM incubated for 24 hrs by Western blotting analysis relative to DMSO; type: cell-based
[20] = molecular target: T3, Protein cereblon/Eukaryotic peptide chain release factor GTP-binding subunit ERF3A (Homo sapiens); assay: Protac activity at CRBN/GSPT1 in human A2780 cells assessed as relative ratio at 10 uM incubated for 24 hrs by Western blotting analysis relative to DMSO; type: cell-based
[21] = molecular target: T2, Cereblon/Casein kinase I alpha (Homo sapiens); assay: Protac activity at CRBN/CK1alpha in human OCILY3 cells assessed as relative ratio at 1 nM incubated for 24 hrs by Western blotting analysis relative to DMSO; type: cell-based
[22] = molecular target: T2, Cereblon/Casein kinase I alpha (Homo sapiens); assay: Protac activity at CRBN/CK1alpha in human OCILY3 cells assessed as relative ratio at 10 nM incubated for 24 hrs by Western blotting analysis relative to DMSO; type: cell-based
[23] = molecular target: T2, Cereblon/Casein kinase I alpha (Homo sapiens); assay: Protac activity at CRBN/CK1alpha in human OCILY3 cells assessed as relative ratio at 100 nM incubated for 24 hrs by Western blotting analysis relative to DMSO; type: cell-based
[24] = molecular target: T2, Cereblon/Casein kinase I alpha (Homo sapiens); assay: Protac activity at CRBN/CK1alpha in human OCILY3 cells assessed as relative ratio at 1 uM incubated for 24 hrs by Western blotting analysis relative to DMSO; type: cell-based
[25] = molecular target: T2, Cereblon/Casein kinase I alpha (Homo sapiens); assay: Protac activity at CRBN/CK1alpha in human OCILY3 cells assessed as relative ratio at 10 uM incubated for 24 hrs by Western blotting analysis relative to DMSO; type: cell-based
[26] = molecular target: T3, Protein cereblon/Eukaryotic peptide chain release factor GTP-binding subunit ERF3A (Homo sapiens); assay: Protac activity at CRBN/GSPT1 in human OCILY3 cells assessed as relative ratio at 1 nM incubated for 24 hrs by Western blotting analysis relative to DMSO; type: cell-based
[27] = molecular target: T3, Protein cereblon/Eukaryotic peptide chain release factor GTP-binding subunit ERF3A (Homo sapiens); assay: Protac activity at CRBN/GSPT1 in human OCILY3 cells assessed as relative ratio at 10 nM incubated for 24 hrs by Western blotting analysis relative to DMSO; type: cell-based
[28] = molecular target: T3, Protein cereblon/Eukaryotic peptide chain release factor GTP-binding subunit ERF3A (Homo sapiens); assay: Protac activity at CRBN/GSPT1 in human OCILY3 cells assessed as relative ratio at 100 nM incubated for 24 hrs by Western blotting analysis relative to DMSO; type: cell-based
[29] = molecular target: T3, Protein cereblon/Eukaryotic peptide chain release factor GTP-binding subunit ERF3A (Homo sapiens); assay: Protac activity at CRBN/GSPT1 in human OCILY3 cells assessed as relative ratio at 1 uM incubated for 24 hrs by Western blotting analysis relative to DMSO; type: cell-based
[30] = molecular target: T3, Protein cereblon/Eukaryotic peptide chain release factor GTP-binding subunit ERF3A (Homo sapiens); assay: Protac activity at CRBN/GSPT1 in human OCILY3 cells assessed as relative ratio at 10 uM incubated for 24 hrs by Western blotting analysis relative to DMSO; type: cell-based
[31] = molecular target: T1, Protein cereblon/Zinc finger protein Helios (Homo sapiens); assay: Protac activity at CRBN/IKZF2 in human A2780 cells assessed as relative ratio at 1 nM incubated for 24 hrs by Western blotting analysis relative to DMSO; type: cell-based
[32] = molecular target: T1, Protein cereblon/Zinc finger protein Helios (Homo sapiens); assay: Protac activity at CRBN/IKZF2 in human A2780 cells assessed as relative ratio at 10 nM incubated for 24 hrs by Western blotting analysis relative to DMSO; type: cell-based
[33] = molecular target: T1, Protein cereblon/Zinc finger protein Helios (Homo sapiens); assay: Protac activity at CRBN/IKZF2 in human A2780 cells assessed as relative ratio at 100 nM incubated for 24 hrs by Western blotting analysis relative to DMSO; type: cell-based
[34] = molecular target: T1, Protein cereblon/Zinc finger protein Helios (Homo sapiens); assay: Protac activity at CRBN/IKZF2 in human A2780 cells assessed as relative ratio at 1 uM incubated for 24 hrs by Western blotting analysis relative to DMSO; type: cell-based
[35] = molecular target: T1, Protein cereblon/Zinc finger protein Helios (Homo sapiens); assay: Protac activity at CRBN/IKZF2 in human A2780 cells assessed as relative ratio at 10 uM incubated for 24 hrs by Western blotting analysis relative to DMSO; type: cell-based
A2780 [36] = assay: Upregulation of Bax transcript level in human A2780 cells at 1 uM incubated for 24 hrs by RT-qPCR analysis; type: functional, cell-based
A2780 [37] = assay: Upregulation of p21 transcript level in human A2780 cells at 1 uM incubated for 24 hrs by RT-qPCR analysis; type: functional, cell-based
OCI-Ly3 [38] = assay: Upregulation of p21 transcript level in human OCILY3 cells at 1 uM incubated for 24 hrs by RT-qPCR analysis; type: functional, cell-based
OCI-Ly3 [39] = assay: Upregulation of p21 protein expression in human OCILY3 cells at […] incubated for 24 hrs by Western blot analysis; type: functional, cell-based
OCI-Ly3 [40] = assay: Upregulation of p53 protein expression in human OCILY3 cells at […] incubated for 24 hrs by Western blot analysis; type: functional, cell-based
OCI-Ly3 [41] = assay: Upregulation of Bax protein expression in human OCILY3 cells at […] incubated for 24 hrs by Western blot analysis; type: functional, cell-based
A2780 [42] = assay: Upregulation of MDM2 protein expression in human A2780 cells at […] incubated for 24 hrs by Western blot analysis; type: functional, cell-based
A2780 [43] = assay: Upregulation of p21 protein expression in human A2780 cells at […] incubated for 24 hrs by Western blot analysis; type: functional, cell-based
A2780 [44] = assay: Upregulation of p53 protein expression in human A2780 cells at […] incubated for 24 hrs by Western blot analysis; type: functional, cell-based
A2780 [45] = assay: Upregulation of Bax protein expression in human A2780 cells at […] incubated for 24 hrs by Western blot analysis; type: functional, cell-based
[46] = molecular target: T3, Protein cereblon/Eukaryotic peptide chain release factor GTP-binding subunit ERF3A (Homo sapiens); assay: Protac activity at CRBN/GSPT1 in human NCI-H1048 cells at 10 to 100 nM incubated for 24 hrs by Western blotting analysis; type: cell-based; conditions: dose 10-100 nM

Question: With COc1cccc2c1OCC(C(=O)Nc1ccc3c(c1)CN(C1CCC(=O)NC1=O)C3=O)=C2 (stereo unspecified) as the compound, how does the Activity (OCI-Ly3 [1]) read?
Answer: Active

Question: What about the Activity (OCI-Ly3 [2]) of the same compound?
Answer: Active

Question: And the Activity [3]?
Answer: 11%

Question: What about the Activity [4] of the same compound?
Answer: 82%

Question: And the Activity [5]?
Answer: 80%

Question: And the Activity [6]?
Answer: 4%

Question: What about the solubility [7] of the same compound?
Answer: 50 mM (≈ 22.4 mg/mL)

Question: What about the Activity [8] of the same compound?
Answer: Active

Question: And the EC50 (A2780 [9])?
Answer: 27 nM

Question: What about the EC50 (OCI-Ly3 [10]) of the same compound?
Answer: 14 nM

Question: What about the Ratio [11] of the same compound?
Answer: 0.5

Question: What about the Ratio [12] of the same compound?
Answer: 0.22

Question: What about the Ratio [13] of the same compound?
Answer: 0.18

Question: What about the Ratio [14] of the same compound?
Answer: 0.17

Question: What about the Ratio [15] of the same compound?
Answer: 0.17

Question: What about the Ratio [16] of the same compound?
Answer: 0.96

Question: What about the Ratio [17] of the same compound?
Answer: 0.9

Question: And the Ratio [18]?
Answer: 0.9

Question: And the Ratio [19]?
Answer: 1

Question: And the Ratio [20]?
Answer: 1

Question: What about the Ratio [21] of the same compound?
Answer: 0.63

Question: What about the Ratio [22] of the same compound?
Answer: 0.28

Question: What about the Ratio [23] of the same compound?
Answer: 0.25

Question: What about the Ratio [24] of the same compound?
Answer: 0.26

Question: What about the Ratio [25] of the same compound?
Answer: 0.27

Question: What about the Ratio [26] of the same compound?
Answer: 0.83

Question: And the Ratio [27]?
Answer: 0.67

Question: And the Ratio [28]?
Answer: 0.65

Question: And the Ratio [29]?
Answer: 0.73

Question: And the Ratio [30]?
Answer: 0.8

Question: What about the Ratio [31] of the same compound?
Answer: 1

Question: And the Ratio [32]?
Answer: 0.77

Question: And the Ratio [33]?
Answer: 0.24

Question: And the Ratio [34]?
Answer: 0.08

Question: What about the Ratio [35] of the same compound?
Answer: 0.06

Question: And the Activity (A2780 [36])?
Answer: Active

Question: What about the Activity (A2780 [37]) of the same compound?
Answer: Active

Question: And the Activity (OCI-Ly3 [38])?
Answer: Active

Question: What about the Activity (OCI-Ly3 [39]) of the same compound?
Answer: Active

Question: What about the Activity (OCI-Ly3 [40]) of the same compound?
Answer: Active

Question: And the Activity (OCI-Ly3 [41])?
Answer: Active

Question: And the Activity (A2780 [42])?
Answer: Active

Question: What about the Activity (A2780 [43]) of the same compound?
Answer: Active

Question: What about the Activity (A2780 [44]) of the same compound?
Answer: Active

Question: What about the Activity (A2780 [45]) of the same compound?
Answer: Active

Question: What about the Activity [46] of the same compound?
Answer: inactive
